Test results reported in article PMC6757289, “Design and Characterization of SGK3-PROTAC1, an Isoform Specific SGK3 Kinase PROTAC Degrader” (ACS Chemical Biology, 2019).
Read-outs that look alike come from different tables or passages of the source.

Key:
Test in all cases: kinase profiling panel
Assay type in all cases: biochemical
Conditions in all cases: read-out: % Activity Remaining
[1] = target: MKK2 (Homo sapiens, UniProt P36507)
Source text: (§1) Protein kinase profiling against a Dundee panel of 140 protein kinases was undertaken at the International Centre for Protein Kinase Profiling. The result for each kinase was presented as a mean kinase activity of the reaction taken in triplicate relative to a control sample treated with DMSO. Assay conditions and abbreviations are available at http://www.kinase-screen.mrc.ac.uk.

[2] = target: EPH-A4 (Homo sapiens, UniProt P54764)
Source text: as §1

[3] = target: ABL (Homo sapiens, UniProt P00519)
Source text: as §1

[4] = target: PKB alpha (Homo sapiens, UniProt P31749)
Source text: as §1

[5] = target: TrkA (Homo sapiens, UniProt P04629)
Source text: as §1

[6] = target: MST3 (Homo sapiens, UniProt Q9Y6E0)
Source text: as §1

[7] = target: MKK1 (Homo sapiens, UniProt Q02750)
Source text: as §1

[8] = target: HER4 (Homo sapiens, UniProt Q15303)
Source text: as §1

[9] = target: FGF-R1 (Homo sapiens, UniProt P11362)
Source text: as §1

[10] = target: SRPK1 (Homo sapiens, UniProt Q96SB4)
Source text: as §1

[11] = target: T1, PKD1 (Homo sapiens, UniProt Q15139)
T1 sequence (Q15139 1-912): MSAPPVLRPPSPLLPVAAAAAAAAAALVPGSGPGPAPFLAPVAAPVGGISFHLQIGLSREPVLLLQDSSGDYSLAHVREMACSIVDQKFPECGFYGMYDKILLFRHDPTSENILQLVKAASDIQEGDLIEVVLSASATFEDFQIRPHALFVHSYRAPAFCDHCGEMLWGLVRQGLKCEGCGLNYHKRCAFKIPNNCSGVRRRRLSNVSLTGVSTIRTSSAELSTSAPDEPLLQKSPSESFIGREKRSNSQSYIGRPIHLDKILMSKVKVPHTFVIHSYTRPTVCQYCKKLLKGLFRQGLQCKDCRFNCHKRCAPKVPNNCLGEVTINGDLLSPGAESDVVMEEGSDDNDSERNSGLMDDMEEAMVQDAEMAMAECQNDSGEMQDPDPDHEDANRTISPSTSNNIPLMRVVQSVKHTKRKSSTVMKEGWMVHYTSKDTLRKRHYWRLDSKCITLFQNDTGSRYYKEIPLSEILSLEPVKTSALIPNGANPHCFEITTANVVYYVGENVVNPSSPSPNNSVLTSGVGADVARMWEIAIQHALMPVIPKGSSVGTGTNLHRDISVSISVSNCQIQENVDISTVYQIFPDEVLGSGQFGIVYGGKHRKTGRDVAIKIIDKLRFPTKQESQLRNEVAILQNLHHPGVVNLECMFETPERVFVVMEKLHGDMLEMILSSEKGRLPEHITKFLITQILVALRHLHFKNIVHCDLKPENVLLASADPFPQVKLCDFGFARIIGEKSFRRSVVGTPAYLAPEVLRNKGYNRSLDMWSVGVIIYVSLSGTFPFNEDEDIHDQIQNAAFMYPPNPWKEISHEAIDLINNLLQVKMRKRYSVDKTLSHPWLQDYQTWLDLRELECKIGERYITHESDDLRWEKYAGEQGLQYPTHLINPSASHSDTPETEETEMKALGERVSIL
Source text: as §1

[12] = target: TTBK1 (Homo sapiens, UniProt Q5TCY1)
Source text: as §1

[13] = target: T2, EIF2AK3 (Homo sapiens, UniProt Q9NZJ5)
T2 sequence (Q9NZJ5 30-1116): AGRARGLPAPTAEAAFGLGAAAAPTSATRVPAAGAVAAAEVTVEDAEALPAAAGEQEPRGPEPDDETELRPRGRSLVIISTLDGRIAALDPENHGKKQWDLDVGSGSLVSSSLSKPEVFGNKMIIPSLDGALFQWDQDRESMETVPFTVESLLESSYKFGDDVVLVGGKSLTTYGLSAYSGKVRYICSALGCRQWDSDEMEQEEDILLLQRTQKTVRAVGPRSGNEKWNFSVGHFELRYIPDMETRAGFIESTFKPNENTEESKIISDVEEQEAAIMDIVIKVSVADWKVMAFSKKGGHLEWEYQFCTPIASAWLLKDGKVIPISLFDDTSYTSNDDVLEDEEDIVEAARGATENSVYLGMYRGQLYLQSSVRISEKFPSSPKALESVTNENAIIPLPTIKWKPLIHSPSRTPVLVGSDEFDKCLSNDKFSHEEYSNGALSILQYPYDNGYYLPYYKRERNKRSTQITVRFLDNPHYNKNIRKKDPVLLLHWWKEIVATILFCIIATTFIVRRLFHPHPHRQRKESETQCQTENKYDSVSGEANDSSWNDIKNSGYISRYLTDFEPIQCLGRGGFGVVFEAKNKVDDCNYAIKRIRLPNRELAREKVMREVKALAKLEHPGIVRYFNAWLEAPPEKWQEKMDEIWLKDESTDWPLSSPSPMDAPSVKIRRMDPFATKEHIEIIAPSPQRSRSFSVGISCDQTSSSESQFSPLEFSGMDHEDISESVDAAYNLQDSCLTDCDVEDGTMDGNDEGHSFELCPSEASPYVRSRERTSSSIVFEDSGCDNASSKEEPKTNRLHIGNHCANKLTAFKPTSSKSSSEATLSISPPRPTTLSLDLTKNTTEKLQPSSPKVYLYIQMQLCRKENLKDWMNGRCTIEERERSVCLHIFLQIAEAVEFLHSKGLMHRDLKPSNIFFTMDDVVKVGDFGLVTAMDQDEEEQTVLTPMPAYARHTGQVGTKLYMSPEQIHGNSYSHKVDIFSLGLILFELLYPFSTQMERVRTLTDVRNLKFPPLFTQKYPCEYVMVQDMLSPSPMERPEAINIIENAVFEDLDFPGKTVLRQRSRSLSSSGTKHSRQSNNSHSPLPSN
Source text: as §1

Chain of ABL (P00519 whole entry): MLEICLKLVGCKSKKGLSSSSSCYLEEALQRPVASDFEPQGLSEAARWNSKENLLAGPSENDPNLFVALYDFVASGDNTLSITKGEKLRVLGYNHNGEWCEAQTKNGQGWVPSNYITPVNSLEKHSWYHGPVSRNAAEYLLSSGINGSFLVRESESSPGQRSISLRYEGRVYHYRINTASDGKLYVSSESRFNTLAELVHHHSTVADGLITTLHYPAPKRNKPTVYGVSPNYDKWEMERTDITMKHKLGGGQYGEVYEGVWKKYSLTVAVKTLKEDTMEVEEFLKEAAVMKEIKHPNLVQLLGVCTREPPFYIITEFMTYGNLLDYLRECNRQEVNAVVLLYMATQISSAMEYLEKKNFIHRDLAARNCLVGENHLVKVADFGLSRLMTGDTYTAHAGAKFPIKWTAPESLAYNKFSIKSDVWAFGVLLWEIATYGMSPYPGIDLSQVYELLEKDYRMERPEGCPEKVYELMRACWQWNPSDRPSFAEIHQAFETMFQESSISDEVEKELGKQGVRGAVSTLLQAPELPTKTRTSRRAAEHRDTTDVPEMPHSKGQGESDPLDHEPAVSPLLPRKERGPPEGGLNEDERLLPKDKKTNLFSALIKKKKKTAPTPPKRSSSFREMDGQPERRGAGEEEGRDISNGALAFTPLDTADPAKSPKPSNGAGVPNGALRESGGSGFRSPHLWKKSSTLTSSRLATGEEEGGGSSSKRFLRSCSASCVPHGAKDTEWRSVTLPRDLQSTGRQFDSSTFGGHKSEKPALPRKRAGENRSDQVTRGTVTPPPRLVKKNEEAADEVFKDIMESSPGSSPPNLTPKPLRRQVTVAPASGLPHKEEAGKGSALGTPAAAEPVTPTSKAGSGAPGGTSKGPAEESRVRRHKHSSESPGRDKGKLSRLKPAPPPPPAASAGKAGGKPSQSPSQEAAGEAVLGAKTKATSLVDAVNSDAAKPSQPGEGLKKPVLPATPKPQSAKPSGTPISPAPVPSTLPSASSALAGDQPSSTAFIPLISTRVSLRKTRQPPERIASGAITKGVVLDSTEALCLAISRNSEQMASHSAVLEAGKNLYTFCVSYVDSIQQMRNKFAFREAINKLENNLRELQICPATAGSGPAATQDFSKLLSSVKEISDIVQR
Chain of EPH-A4 (P54764 20-986): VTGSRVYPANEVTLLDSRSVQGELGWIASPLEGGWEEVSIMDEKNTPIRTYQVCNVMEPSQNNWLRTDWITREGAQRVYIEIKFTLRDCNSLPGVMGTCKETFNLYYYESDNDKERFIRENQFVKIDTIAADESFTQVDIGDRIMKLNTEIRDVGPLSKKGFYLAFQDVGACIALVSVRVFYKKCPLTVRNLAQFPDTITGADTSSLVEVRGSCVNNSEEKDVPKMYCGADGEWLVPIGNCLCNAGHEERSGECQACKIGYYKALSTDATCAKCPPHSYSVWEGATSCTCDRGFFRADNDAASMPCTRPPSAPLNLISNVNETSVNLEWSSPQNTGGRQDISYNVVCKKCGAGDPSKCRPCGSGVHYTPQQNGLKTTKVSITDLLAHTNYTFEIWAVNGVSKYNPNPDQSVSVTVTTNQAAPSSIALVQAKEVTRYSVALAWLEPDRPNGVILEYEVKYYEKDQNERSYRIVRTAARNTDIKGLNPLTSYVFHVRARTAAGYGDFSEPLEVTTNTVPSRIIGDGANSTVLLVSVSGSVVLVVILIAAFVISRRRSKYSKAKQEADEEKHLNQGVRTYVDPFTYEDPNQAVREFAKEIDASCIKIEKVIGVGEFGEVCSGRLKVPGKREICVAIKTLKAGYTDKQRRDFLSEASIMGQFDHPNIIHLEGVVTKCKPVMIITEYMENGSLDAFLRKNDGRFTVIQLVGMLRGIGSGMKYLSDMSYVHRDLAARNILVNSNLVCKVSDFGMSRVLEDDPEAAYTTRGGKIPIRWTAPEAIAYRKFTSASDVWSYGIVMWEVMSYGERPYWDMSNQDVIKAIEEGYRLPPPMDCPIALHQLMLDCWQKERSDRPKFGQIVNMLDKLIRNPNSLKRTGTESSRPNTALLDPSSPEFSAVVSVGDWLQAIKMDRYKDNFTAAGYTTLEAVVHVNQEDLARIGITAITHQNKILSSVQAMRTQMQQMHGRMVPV
Chain of MKK1 (Q02750 whole entry): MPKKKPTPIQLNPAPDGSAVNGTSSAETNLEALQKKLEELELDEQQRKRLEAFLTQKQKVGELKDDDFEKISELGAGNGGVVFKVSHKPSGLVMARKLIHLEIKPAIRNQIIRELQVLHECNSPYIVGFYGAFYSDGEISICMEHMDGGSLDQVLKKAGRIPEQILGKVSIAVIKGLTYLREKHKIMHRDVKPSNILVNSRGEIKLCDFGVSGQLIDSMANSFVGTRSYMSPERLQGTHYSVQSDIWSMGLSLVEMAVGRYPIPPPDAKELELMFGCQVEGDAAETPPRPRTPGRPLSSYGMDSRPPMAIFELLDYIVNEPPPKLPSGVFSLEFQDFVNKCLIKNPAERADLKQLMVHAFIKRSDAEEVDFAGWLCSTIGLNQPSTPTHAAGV
Chain of MST3 (Q9Y6E0 whole entry): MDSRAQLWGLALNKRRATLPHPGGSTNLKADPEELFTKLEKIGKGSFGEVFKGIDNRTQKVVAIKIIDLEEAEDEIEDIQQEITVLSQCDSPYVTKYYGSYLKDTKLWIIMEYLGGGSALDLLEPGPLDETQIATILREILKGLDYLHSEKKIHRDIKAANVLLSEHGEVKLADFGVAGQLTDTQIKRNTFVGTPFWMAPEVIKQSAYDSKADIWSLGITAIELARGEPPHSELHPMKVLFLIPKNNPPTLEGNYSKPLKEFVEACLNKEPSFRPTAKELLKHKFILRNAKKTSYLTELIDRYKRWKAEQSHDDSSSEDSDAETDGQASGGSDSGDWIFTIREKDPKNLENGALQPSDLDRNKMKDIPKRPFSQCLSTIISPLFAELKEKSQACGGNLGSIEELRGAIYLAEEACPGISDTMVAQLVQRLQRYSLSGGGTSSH
Chain of MKK2 (P36507 whole entry): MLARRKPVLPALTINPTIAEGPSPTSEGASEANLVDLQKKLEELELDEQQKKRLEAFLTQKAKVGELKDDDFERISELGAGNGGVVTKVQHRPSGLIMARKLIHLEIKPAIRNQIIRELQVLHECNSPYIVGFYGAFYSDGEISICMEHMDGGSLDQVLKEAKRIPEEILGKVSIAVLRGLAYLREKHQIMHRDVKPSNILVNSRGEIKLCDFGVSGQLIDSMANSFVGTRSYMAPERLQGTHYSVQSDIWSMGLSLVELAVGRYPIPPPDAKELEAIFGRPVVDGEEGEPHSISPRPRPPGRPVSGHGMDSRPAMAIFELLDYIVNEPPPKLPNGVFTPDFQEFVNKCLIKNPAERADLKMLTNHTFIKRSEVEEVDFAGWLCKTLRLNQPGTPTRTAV
Chain of PKB alpha (P31749 whole entry): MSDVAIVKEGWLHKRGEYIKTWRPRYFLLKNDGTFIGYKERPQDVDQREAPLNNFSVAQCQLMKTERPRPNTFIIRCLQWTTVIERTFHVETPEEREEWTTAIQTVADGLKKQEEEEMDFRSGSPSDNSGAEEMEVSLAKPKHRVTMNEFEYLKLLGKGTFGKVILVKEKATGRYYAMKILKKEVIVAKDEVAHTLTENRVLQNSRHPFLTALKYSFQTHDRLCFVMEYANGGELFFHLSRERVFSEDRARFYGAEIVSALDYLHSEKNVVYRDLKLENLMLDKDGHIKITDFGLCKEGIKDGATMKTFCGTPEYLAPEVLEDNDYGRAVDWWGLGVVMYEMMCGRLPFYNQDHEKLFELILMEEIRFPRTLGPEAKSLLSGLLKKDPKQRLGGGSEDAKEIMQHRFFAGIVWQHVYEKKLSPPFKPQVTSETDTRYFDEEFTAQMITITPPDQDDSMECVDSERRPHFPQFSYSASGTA
Chain of TrkA (P04629 33-796): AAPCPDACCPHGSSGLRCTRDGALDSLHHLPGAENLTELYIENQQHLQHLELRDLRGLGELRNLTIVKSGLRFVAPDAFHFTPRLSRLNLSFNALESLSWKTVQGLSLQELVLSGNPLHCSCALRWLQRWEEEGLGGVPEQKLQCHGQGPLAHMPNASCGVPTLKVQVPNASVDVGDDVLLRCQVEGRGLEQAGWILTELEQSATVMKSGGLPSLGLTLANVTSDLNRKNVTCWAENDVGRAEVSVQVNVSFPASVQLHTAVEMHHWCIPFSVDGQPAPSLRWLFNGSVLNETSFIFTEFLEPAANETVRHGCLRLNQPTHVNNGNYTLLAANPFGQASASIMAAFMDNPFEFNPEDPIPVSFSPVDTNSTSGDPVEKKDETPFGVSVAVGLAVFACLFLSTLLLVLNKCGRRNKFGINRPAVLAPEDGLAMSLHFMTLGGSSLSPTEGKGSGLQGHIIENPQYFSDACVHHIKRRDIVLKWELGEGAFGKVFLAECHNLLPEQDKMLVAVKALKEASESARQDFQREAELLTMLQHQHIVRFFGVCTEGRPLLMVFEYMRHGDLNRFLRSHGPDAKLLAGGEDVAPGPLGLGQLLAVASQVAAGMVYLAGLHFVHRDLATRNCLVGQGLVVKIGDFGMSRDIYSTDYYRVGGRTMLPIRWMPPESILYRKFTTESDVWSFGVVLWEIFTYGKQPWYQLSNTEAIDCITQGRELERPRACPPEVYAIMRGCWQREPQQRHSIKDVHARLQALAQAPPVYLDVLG

Compound	remaining activity at 1 µM ([1]; 1 µM)	remaining activity at 1 µM ([2]; 1 µM)	remaining activity at 1 µM ([3]; 1 µM)	remaining activity at 1 µM ([4]; 1 µM)	remaining activity at 1 µM ([5]; 1 µM)	remaining activity at 1 µM ([6]; 1 µM)	remaining activity at 1 µM ([7]; 1 µM)	remaining activity at 1 µM ([8]; 1 µM)	remaining activity at 1 µM ([9]; 1 µM)	remaining activity at 1 µM ([10]; 1 µM)	remaining activity at 1 µM ([11]; 1 µM)	remaining activity at 1 µM ([12]; 1 µM)	remaining activity at 1 µM ([13]; 1 µM)	remaining activity at 1 µM [1]	remaining activity at 1 µM [2]	remaining activity at 1 µM [3]	remaining activity at 1 µM [4]	remaining activity at 1 µM [5]	remaining activity at 1 µM [6]	remaining activity at 1 µM [7]	other results
Cc1ccc(F)c(S(=O)(=O)Nc2ccc(-c3nc(OC[C@H]4CN(CCCCCCOCCOCCOCC(=O)N[C@H](C(=O)N5C[C@H](O)C[C@H]5C(=O)NCc5ccc(-c6scnc6C)cc5)C(C)(C)C)CCO4)c4cn[nH]c4n3)cc2)c1 [SGK3-PROTAC1]	114%	106%	111%	105%	112%	102%	106%	92%	108%	96%	94%	105%	106%								
Cc1ccc(F)c(S(=O)(=O)Nc2ccc(-c3nc(OC[C@H]4CNCCO4)c4cn[nH]c4n3)cc2)c1 [308-R, reference compound]												91%		80%	53%	96%	96%	71%	79%	62%	remaining activity at 1 µM [8]: 67%; remaining activity at 1 µM [9]: 115%; remaining activity at 1 µM [10]: 119%; remaining activity at 1 µM [11]: 37%; remaining activity at 1 µM [13]: 63%
COc1ccc(Cl)c(S(=O)(=O)Nc2ccc(-c3nc(OC[C@H]4CNCCO4)c4c(C)n[nH]c4n3)cc2)c1 [290-R, reference compound]														41%	95%	88%	49%	104%	57%	66%	remaining activity at 1 µM [8]: 102%; remaining activity at 1 µM [9]: 104%; remaining activity at 1 µM [10]: 94%; remaining activity at 1 µM [11]: 15%; remaining activity at 1 µM [12]: 109%; remaining activity at 1 µM [13]: 66%
Cc1ccc(F)c(S(=O)(=O)Nc2ccc(-c3nc(OC[C@H]4CN(CCCCCCOCCOCCOCC(=O)N[C@H](C(=O)N5C[C@@H](O)C[C@H]5C(=O)NCc5ccc(-c6scnc6C)cc5)C(C)(C)C)CCO4)c4cn[nH]c4n3)cc2)c1 [cisSGK3-PROTAC1]	124%	89%	112%	117%	102%	113%	102%	103%	106%	104%	92%	113%	111%								
